Test system: Onchocerca gutturosa Adult Male Worms
Assay: Onchocerciasis in vitro screening model, worm motility score
Format: cell-based
Settings: Onchocerca gutturosa; Table 1 O. gutturosa; levels A/B/C; motility or MTT readout not specified; read-out: O. gutturosa activity level (IC50 or MED)

| Compound | IC50 [nM] |
| --- | --- |
| Cc1cccnc1Nc1nc(-c2ccc(OC3CC4(CCN(C)C4)C3)cn2)ns1 (stereo not shown) [Compound 77, 3-(5-(6-methyl-6-azaspiro [3.4]octan-2-yloxy)pyridin-2-yl)-N-(3-methylpyridin-2-yl)-1,2,4-thiadiazol-5-amine] | 500 to 5000 |
| CN(C)c1cccnc1Nc1nc(-c2ccc(OC3CC3)cn2)ns1 [Compound 78, N2-(3-(5-cyclopropoxy-pyridin-2-yl)-1,2,4-thiadiazol-5-yl)-N3,N3-dimethyl-pyridine-2,3-diamine] | 500 to 5000 |
| Cc1cccnc1Nc1nc(-c2ccc(S(C)(=O)=O)cn2)ns1 [Compound 79, N-(3-methyl-pyridin-2-yl)-3-(5-(methyl-sulfonyl)pyridin-2-yl)-1,2,4-thiadiazol-5-amine] | 500 to 5000 |
| COc1cccnc1Nc1nc(-c2ccc(OC3CC3)cn2)ns1 [Compound 80, 3-(5-cycloprop-oxypyridin-2-yl)-N-(3-methoxypyridin-2-yl)-1,2,4-thiadiazol-5-amine] | 200 to 500 |
| COc1cccnc1Nc1nc(-c2ccc(OC(C)C)cn2)ns1 [Compound 81, 3-(5-isopropoxy-pyridin-2-yl)-N-(3-methoxy-pyridin-2-yl)-1,2,4-thiadiazol-5-amine] | < 200 |
| Cc1cccnc1Nc1nc(-c2ccc(OC3CCN(C4CC4)CC3(F)F)cn2)ns1 (stereo not shown) [Compound 83, 3-(5-(1-cyclo-propyl-3,3-difluoro-piperidin-4-yloxy)pyridin-2-yl)-N-(3-methylpyridin-2-yl)-1,2,4-thiadiazol-5-amine] | 200 to 500 |
| FC(F)(F)c1cccnc1Nc1nc(-c2cc(C3CC3)ccn2)ns1 [Compound 84, 3-(4-cyclopropyl-pyridin-2-yl)-N-(3-(trifluoromethyl)pyridin-2-yl)-1,2,4-thiadiazol-5-amine] | < 200 |
| FC(F)(F)c1ccnc(Nc2nc(-c3cc(C4CC4)ccn3)ns2)c1 [Compound 85, 3-(4-cyclopropyl-pyridin-2-yl)-N-(4-(trifluoromethyl)pyridin-2-yl)-1,2,4-thiadiazol-5-amine] | < 200 |
| CC(C)c1ccnc(-c2nsc(Nc3cc(C(F)(F)F)ccn3)n2)c1 [Compound 86, 3-(4-isopropyl-pyridin-2-yl)-N-(4-(trifluoromethyl)pyridin-2-yl)-1,2,4-thiadiazol-5-amine] | < 200 |
| CC(C)c1cccnc1Nc1nc(-c2ccc(OC3CCN(C4CC4)CC3(F)F)cn2)ns1 (stereo not shown) [Compound 87, 3-(5-(1-cyclo-propyl-3,3-difluoro-piperidin-4-yloxy)pyridin-2-yl)-N-(3-isopropylpyridin-2-yl)-1,2,4-thiadiazol-5-amine] | < 200 |
| CC(C)c1cccnc1Nc1nc(-c2ccc(O[C@@H]3CCN(C4CC4)C[C@@H]3F)cn2)ns1 [Compound 89, 3-(5-((3S,4R)-1-cyclopropyl-3-fluoro-piperidin-4-yloxy)pyridin-2-yl)-N-(3-isopropylpyridin-2-yl)-1,2,4-thiadiazol-5-amine] | < 200 |
| Cc1cccnc1Nc1nc(-c2ccc(O[C@@H]3CCN(C4CC4)C[C@H]3F)cn2)ns1 [Compound 91, 3-(5-((3R,4R)-1-cyclopropyl-3-fluoro-piperidin-4-yloxy)pyridin-2-yl)-N-(3-methylpyridin-2-yl)-1,2,4-thiadiazol-5-amine] | < 200 |
| Cc1cccnc1Nc1nc(-c2ncc(OC3CC3)cc2C(F)(F)F)ns1 [Compound 93, 3-(5-cyclo-propoxy-3-(trifluoromethyl)pyridin-2-yl)-N-(3-methyl-pyridin-2-yl)-1,2,4-thiadiazol-5-amine] | 500 to 5000 |
| CC(C)Oc1cccnc1-c1nsc(Nc2cc(N3CCCC3)ccn2)n1 [Compound 94, 3-(3-isopropoxy-pyridin-2-yl)-N-(4-(pyrrolidin-1-yl)pyridin-2-yl)-1,2,4-thiadiazol-5-amine] | < 200 |
| CC(C)c1cnc(Nc2nc(-c3ccc(OC4CC4)cn3)ns2)cc1C(F)(F)F [Compound 95, 3-(5-cyclopropoxy-pyridin-2-yl)-N-(5-isopropyl-4-(trifluoromethyl)pyridin-2-yl)-1,2,4-thiadiazol-5-amine] | < 200 |
| CC(C)c1cnc(Nc2nc(-c3cc(OC4CC4)ccn3)ns2)cc1C(F)(F)F [Compound 96, 3-(4-cycloprop-oxypyridin-2-yl)-N-(5-isopropyl-4-(trifluoromethyl)pyridin-2-yl)-1,2,4-thiadiazol-5-amine] | < 200 |
| CC(C)c1cnc(Nc2nc(-c3ncccc3OC3CC3)ns2)cc1C(F)(F)F [Compound 97, 3-(3-cycloprop-oxypyridin-2-yl)-N-(5-isopropyl-4-(trifluoromethyl)pyridin-2-yl)-1,2,4-thiadiazol-5-amine] | < 200 |
| Cc1cccnc1Nc1nc(-c2cc(C(F)(F)F)c(OC3CC3)cn2)ns1 [Compound 102, 3-(5-cyclo-propoxy-4-(trifluoromethyl)pyridin-2-yl)-N-(3-methyl-pyridin-2-yl)-1,2,4-thiadiazol-5-amine] | 500 to 5000 |
| O=C(NC1CC(F)(F)C1)c1ccc(Nc2nc(-c3ccc(OC4CC4)cn3)ns2)nc1 [Compound 107, 6-(3-(5-cyclo-propoxypyridin-2-yl)-1,2,4-thiadiazol-5-ylamino)-N-(3,3-difluoro-cyclobutyl) nicotinamide] | 500 to 5000 |
| CNc1cccnc1Nc1nc(-c2ccc(OC(C)C)cn2)ns1 [Compound 108, N2-(3-(5-isopropoxypyridin-2-yl)-1,2,4-thiadiazol-5-yl)-N3-methyl-pyridine-2,3-diamine] | 200 to 500 |
| Cc1cccnc1Nc1nc(-c2cc(C(F)(F)F)c(OCC3CC3)cn2)ns1 [Compound 110, 3-(5-(cyclo-propylmethoxy)-4-(trifluoromethyl)pyridin-2-yl)-N-(3-methyl-pyridin-2-yl)-1,2,4-thiadiazol-5-amine] | < 200 |

Now from value to molecule:

| IC50 [nM] | Compound |
| --- | --- |
| 200 to 500 | Cc1cccnc1Nc1nc(-c2ccc(OC3CC4(C3)CN(C3CC3)C4)cn2)ns1 [Compound 82, 3-(5-(2-cyclo-propyl-2-azaspiro[3.3]heptan-6-yloxy)pyridin-2-yl)-N-(3-methylpyridin-2-yl)-1,2,4-thiadiazol-5-amine] |
| 500 to 5000 | Cc1cccnc1Nc1nc(-c2ccc(OC3CC4(C3)CN(C)C4)cn2)ns1 [Compound 88, 3-(5-(2-methyl-2-azaspiro[3.3]heptan-6-yloxy)pyridin-2-yl)-N-(3-methylpyridin-2-yl)-1,2,4-thiadiazol-5-amine] |
| < 200 | CC(C)c1cccnc1Nc1nc(-c2ccc(O[C@@H]3CCN(C4CC4)C[C@H]3F)cn2)ns1 [Compound 90, 3-(5-((3R,4R)-1-cyclopropyl-3-fluoro-piperidin-4-yloxy)pyridin-2-yl)-N-(3-isopropylpyridin-2-yl)-1,2,4-thiadiazol-5-amine] |
| < 200 | Cc1cccnc1Nc1nc(-c2ccc(OC3CCN(C4CC4)C[C@@H]3F)cn2)ns1 (stereo partly drawn) [Compound 92, 3-(5-((3S)-1-cyclopropyl-3-fluoro-piperidin-4-yloxy)pyridin-2-yl)-N-(3-methylpyridin-2-yl)-1,2,4-thiadiazol-5-amine] |
| 200 to 500 | Cc1cccnc1N(C)c1nc(-c2ccc(OC(C)C)cn2)ns1 [Compound 98, 3-(5-isopropoxy-pyridin-2-yl)-N-methyl-N-(3-methylpyridin-2-yl)-1,2,4-thiadiazol-5-amine] |
| 500 to 5000 | FC(F)(F)c1ccnc(-c2nsc(Nc3cc(N4CCCC4)ccn3)n2)c1 [Compound 99, N-(4-(pyrrolidin-1-yl)pyridin-2-yl)-3-(4-(trifluoromethyl)pyridin-2-yl)-1,2,4-thiadiazol-5-amine] |
| 200 to 500 | Cc1cccnc1Nc1nc(-c2ccc(S(=O)(=O)C3CCN(C)CC3)cn2)ns1 [Compound 100, 3-(5-(1-methylpiperidin-4-ylsulfonyl)pyridin-2-yl)-N-(3-methylpyridin-2-yl)-1,2,4-thiadiazol-5-amine] |
| 200 to 500 | CN(C)c1cccnc1Nc1nc(-c2ccc(OCC(F)(F)F)cn2)ns1 [Compound 101, N3,N3-dimethyl-N2-(3-(5-(2,2,2-trifluoroethoxy)pyridin-2-yl)-1,2,4-thiadiazol-5-yl)pyridine-2,3-diamine] |
| < 200 | Cc1cccnc1Nc1nc(-c2ccc(OC3CC3)cn2)n(C)n1 [Compound 103, N-(5-(5-cyclopropoxy-pyridin-2-yl)-1-methyl-1H-1,2,4-triazol-3-yl)-3-methyl-pyridin-2-amine] |
| < 200 | Cc1cccnc1Nc1nnc(-c2cc(C(C)C)ccn2)o1 [Compound 104, 5-(4-isopropyl-pyridin-2-yl)-N-(3-methyl-pyridin-2-yl)-1,3,4-oxadiazol-2-amine] |
| < 200 | COc1cccnc1Nc1nc(-c2ccc(OCC(F)(F)F)cn2)ns1 [Compound 105, N-(3-methoxy-pyridin-2-yl)-3-(5-(2,2,2-trifluoroethoxy)pyridin-2-yl)-1,2,4-thiadiazol-5-amine] |
| 500 to 5000 | O=C(NCC1CC1)c1ccc(Nc2nc(-c3ccc(OC4CC4)cn3)ns2)nc1 [Compound 106, 6-(3-(5-cyclo-propoxypyridin-2-yl)-1,2,4-thiadiazol-5-ylamino)-N-(cyclopropyl-methyl) nicotinamide] |
| < 200 | CC(C)c1cccnc1Nc1nc(-c2cc(C(F)(F)F)c(OC3CC3)cn2)ns1 [Compound 109, 3-(5-cyclopropoxy-4-(trifluoromethyl)pyridin-2-yl)-N-(3-isopropyl-pyridin-2-yl)-1,2,4-thiadiazol-5-amine] |
| < 200 | CN(C)c1cccnc1Nc1nc(-c2cc(C(F)(F)F)c(OC3CC3)cn2)ns1 [Compound 111, N2-(3-(5-cyclo-propoxy-4-(trifluoromethyl)pyridin-2-yl)-1,2,4-thiadiazol-5-yl)-N3,N3-dimethyl-pyridine-2,3-diamine] |
| 200 to 500 | CC(=O)N1CCN(c2ccc(Nc3nc(-c4ccc(OC5CC5)cn4)ns3)nc2)CC1 [Compound 112, 1-(4-(6-(3-(5-cyclopropoxy-pyridin-2-yl)-1,2,4-thiadiazol-5-ylamino)pyridin-3-yl)piperazin-1-yl) ethanone] |
| 500 to 5000 | O=C(CC(F)(F)F)N1CCN(c2ccc(Nc3nc(-c4ccc(OC5CC5)cn4)ns3)nc2)CC1 [Compound 113, 1-(4-(6-(3-(5-cycloprop-oxypyridin-2-yl)-1,2,4-thiadiazol-5-ylamino)pyridin-3-yl)piperazin-1-yl)-3,3,3-trifluoro-propan-1-one] |

— patent US11505548B2, “Heterocyclic compounds and their use for treatment of helminthic infections and diseases” (Celgene Corporation, priority 2019, dated 2022)
